{
  "source": "patent US11878955B1",
  "about": "“3,3′,3″-nitrilotris(1-(naphthalen-2-yloxy)propan-2-ol) as an eco-friendly insecticidal agent against Spodoptera littoralis (boisd.)” (priority 2023, dated 2024)",
  "test_system": "Spodoptera littoralis larvae (2nd and 4th instars)",
  "test": "Insecticidal bioassay screening (castor leaf dip)",
  "type": "in vivo",
  "conditions": "for LC50 (ppm): after 72 h of treatment; for Toxic ratio: 72 h, fenoxycarb's LC50 / the compound's LC50 × 100",
  "experimental": "Five concentrations (200, 100, 50, 25, 12.5 ppm) were designed for this synthetic compound and the reference fenoxycarb compound as the dynamic ingredients based on ppm via diluting the commercial formulation.\nIn this experiment, castor leaves are immersed in each of the previously prepared concentrations of the components for 10 seconds and then left to dry for 60 minutes. Larvae of the second and fourth instars of each checked strain are prepared with treated leaves in gauze-covered glass containers for 72 hrs. An untreated control is made in which leaves are dipped in triton x-100 and distilled water only. Then the preserved leaves were removed & fresh, untreated leaves were provided for 72 hours. Three replicates (10 larvae each) were checked for each concentration. Daily inspection was carried out for all treatments and mortality percentages were recorded 3 days (72 hours) after treatment. The average mortality percentage was corrected employing Abbott's formula. The corrected mortality rate for each of the previously synthesized compounds is statistically calculated according to Finney (1970). Through this rate, the corresponding concentration test lines (LDP lines) are assessed. Fifty and ninety percent mortality are determined, and the regression values for the checked products were previously evaluated.",
  "data": [
    {"smiles": "CCOC(=O)NCCOc1ccc(Oc2ccccc2)cc1", "note": "[Fenoxycarb, reference compound]", "values": [
      {"measurement": "LC50 (ppm)", "setting": "2nd instar larvae of S. littoralis", "result": 2.73, "unit": "ppm"},
      {"measurement": "Toxic ratio", "setting": "2nd instar larvae", "result": 100},
      {"measurement": "LC50 (ppm)", "setting": "4th instar larvae of S. littoralis", "result": 43.231, "unit": "ppm"},
      {"measurement": "Toxic ratio", "setting": "4th instar larvae", "result": 100},
      {"measurement": "LC50", "setting": "Spodoptera littoralis, foliar", "result": 2.73, "unit": "µg/mL"}
    ]}
  ]
}
